Measurements from the supplement of paper PMC10307832.

Assays:
Assay in all cases: relative viability (nuclei count vs DMSO), 5 days (fraction); higher = more cells survive
NCI-H727 = test system: NCI-H727
Method in brief: (§1)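 After 5 days of treatment, lung cancer cells in 1536-well plates were fixed and stained in a single step (final 0.05% Triton X-100, 1% formaldehyde, 1 ug/ml Hoechst) and their nuclei counted on 4× images. Treatment had been applied by pin tool the day after seeding as one drug alone or as a fixed anchor-drug dose with five library-drug doses (not always all listed) in √10 steps. Relative viability is the nuclei count of treated wells divided by that of vehicle wells, and values are medians of duplicate plates.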

NCI-H441 = test system: NCI-H441
Method in brief: as §1

NCI-H2087 = test system: NCI-H2087
Method in brief: as §1

H3255 = test system: H3255
Method in brief: as §1

NCI-H1915 = test system: NCI-H1915
Method in brief: as §1

ABC-1 = test system: ABC-1
Method in brief: as §1

NCI-H520 = test system: NCI-H520
Method in brief: as §1

NCI-H661 = test system: NCI-H661
Method in brief: as §1

201T = test system: 201T
Method in brief: as §1

NCI-H2023 = test system: NCI-H2023
Method in brief: as §1

A-427 = test system: A-427
Method in brief: as §1

With `Cc1sc2c(c1C)C(c1ccc(Cl)cc1)=N[C@@H](CC(=O)OC(C)(C)C)c1nnc(C)n1-2` [JQ1] + Cc1nc(NC(=O)N2CCC[C@H]2C(N)=O)sc1-c1ccnc(C(C)(C)C(F)(F)F)c1 [Alpelisib] (partner 2 µM) the relative viability (NCI-H727; first compound 0.4 µM) was 0.445, the relative viability (NCI-H727; first compound 1.265 µM) was 0.231 and the relative viability (NCI-H727; first compound 4 µM) was 0.222. The relative viability (NCI-H441; first compound 0.04 µM) was 0.772, the relative viability (NCI-H441; first compound 0.1265 µM) was 0.958 and the relative viability (NCI-H441; first compound 0.4 µM) was 0.692. It also gave a relative viability (NCI-H441; first compound 1.265 µM) of 0.294, a relative viability (NCI-H441; first compound 4 µM) of 0.444 and a relative viability (NCI-H2087; first compound 0.04 µM) of 1.08. For the same compound, the relative viability (NCI-H2087; first compound 0.4 µM) was 0.811, the relative viability (NCI-H2087; first compound 1.265 µM) was 0.625 and the relative viability (NCI-H2087; first compound 4 µM) was 0.438. For the same compound, the relative viability (H3255; first compound 0.04 µM) was 0.691, the relative viability (H3255; first compound 0.1265 µM) was 0.62 and the relative viability (H3255; first compound 0.4 µM) was 0.619. The relative viability (H3255; first compound 1.265 µM) was 0.34, the relative viability (H3255; first compound 4 µM) was 0.296 and the relative viability (NCI-H1915; first compound 0.04 µM) was 1.05. It also gave a relative viability (NCI-H1915; first compound 0.1265 µM) of 0.94, a relative viability (NCI-H1915; first compound 0.4 µM) of 0.982 and a relative viability (NCI-H1915; first compound 1.265 µM) of 0.613. For the same compound, the relative viability (NCI-H1915; first compound 4 µM) was 0.33, the relative viability (ABC-1; first compound 0.04 µM) was 1.07 and the relative viability (ABC-1; first compound 0.1265 µM) was 1.04. For the same compound, the relative viability (ABC-1; first compound 0.4 µM) was 0.829, the relative viability (ABC-1; first compound 1.265 µM) was 0.424 and the relative viability (ABC-1; first compound 4 µM) was 0.465. The relative viability (NCI-H520; first compound 0.04 µM) was 0.798, the relative viability (NCI-H520; first compound 0.1265 µM) was 0.934 and the relative viability (NCI-H520; first compound 0.4 µM) was 0.667. For the same compound, the relative viability (NCI-H520; first compound 1.265 µM) was 0.38, the relative viability (NCI-H520; first compound 4 µM) was 0.268 and the relative viability (NCI-H661; first compound 0.04 µM) was 0.524. It also gave a relative viability (NCI-H661; first compound 0.1265 µM) of 0.529, a relative viability (NCI-H661; first compound 0.4 µM) of 0.71 and a relative viability (NCI-H661; first compound 1.265 µM) of 0.549. It also gave a relative viability (NCI-H661; first compound 4 µM) of 0.465, a relative viability (201T; first compound 0.04 µM) of 1.02 and a relative viability (201T; first compound 0.1265 µM) of 0.926. It also gave a relative viability (201T; first compound 0.4 µM) of 0.939, a relative viability (201T; first compound 1.265 µM) of 0.715 and a relative viability (201T; first compound 4 µM) of 0.567. It also gave a relative viability (NCI-H2023; first compound 0.04 µM) of 0.544, a relative viability (NCI-H2023; first compound 0.1265 µM) of 0.651 and a relative viability (NCI-H2023; first compound 0.4 µM) of 0.531. It also gave a relative viability (NCI-H2023; first compound 1.265 µM) of 0.213, a relative viability (NCI-H2023; first compound 4 µM) of 0.217 and a relative viability (A-427; first compound 0.04 µM) of 1.15. The relative viability (A-427; first compound 0.1265 µM) was 1.05, the relative viability (A-427; first compound 0.4 µM) was 1.11 and the relative viability (A-427; first compound 1.265 µM) was 0.967. It also gave a relative viability (A-427; first compound 4 µM) of 0.731.
